Tested on: PRISM DNA-barcoded human tumour cell lines
Test: PRISM pooled cell viability assay;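 on Area under the curve (AUC): 8 threefold dilutions from 10 µM with 5 days of exposure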;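 on PRISM AUC: 8 threefold dilutions from 10 µM with 5 days of exposure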
Format: cell-based
Design: Area under the curve (AUC): scale not given here; AUC (PRISM viability) / AUC (PRISM): unit not given beside the values
Details: for AUC (PRISM): BRAF class I; for PRISM AUC: KRAS MUT; for AUC (PRISM viability): WT
Method: Cells were then lysed in TCL mRNA lysis buffer, and then PCR with reverse transcription was performed. Detection of the barcodes and univariate and multivariate analysis was then performed as previously described. Data analysis is described in the Supplementary Methods. Up-to-date code for our analysis is at the github link: https://github.com/cmap/dockerized_mts.
For every gene with non-silent mutations in at least four cell-lines, we compared the AUC values between cells with and without those mutations using a t-test. This analysis was carried out for: (i) the full dataset; (ii) excluding cell lines with non-silent KRAS mutations; and (iii) excluding cell lines that have either KRAS or NRAS non-silent mutations.

[1] = DND41_HAEMATOPOIETIC_AND_LYMPHOID_TISSUE

## CCn1c(-c2cc(N3CCN(C4CC4)CC3)cnc2[C@H](C)OC)c2c3cc(ccc31)-c1csc(n1)C[C@H](NC(=O)[C@H]1[C@@H]3COC[C@@H]31)C(=O)N1CCC[C@H](N1)C(=O)OCC(C)(C)C2 [RMC-7977]
42MGBA_CENTRAL_NERVOUS_SYSTEM
  Area under the curve (AUC): 0.8215
253JBV_URINARY_TRACT
  Area under the curve (AUC): 0.7547
639V_URINARY_TRACT
  Area under the curve (AUC): 0.5786
647V_URINARY_TRACT
  Area under the curve (AUC): 0.793
697_HAEMATOPOIETIC_AND_LYMPHOID_TISSUE
  Area under the curve (AUC): 0.7402
769P_KIDNEY
  Area under the curve (AUC): 0.9025
786O_KIDNEY
  Area under the curve (AUC): 0.9593
5637_URINARY_TRACT
  Area under the curve (AUC): 0.5198
8305C_THYROID
  Area under the curve (AUC): 0.8425
A101D_SKIN
  AUC (PRISM): 0.8318
A375_SKIN
  AUC (PRISM): 0.8721
A549_LUNG
  PRISM AUC: 0.4422
A1207_CENTRAL_NERVOUS_SYSTEM
  AUC (PRISM): 0.9848
A2058_SKIN
  AUC (PRISM): 0.6601
AGS_STOMACH
  PRISM AUC: 0.2114
ASPC1_PANCREAS
  PRISM AUC: 0.2372
CAL62_THYROID
  PRISM AUC: 0.7922
CALU1_LUNG
  PRISM AUC: 0.3345
CAOV3_OVARY
  Area under the curve (AUC): 0.8029
CAPAN2_PANCREAS
  Area under the curve (AUC): 0.3724
  PRISM AUC: 0.2599
CAS1_CENTRAL_NERVOUS_SYSTEM
  Area under the curve (AUC): 0.8726
CASKI_CERVIX
  Area under the curve (AUC): 0.7017
CBAGPN_BONE
  Area under the curve (AUC): 0.5843
CCFSTTG1_CENTRAL_NERVOUS_SYSTEM
  Area under the curve (AUC): 0.8445
CCK81_LARGE_INTESTINE
  Area under the curve (AUC): 0.8268
CCLP1_BILIARY_TRACT
  Area under the curve (AUC): 0.6816
CCSW1_BILIARY_TRACT
  Area under the curve (AUC): 0.6555
CFPAC1_PANCREAS
  Area under the curve (AUC): 0.5351
  PRISM AUC: 0.2506
CH157MN_CENTRAL_NERVOUS_SYSTEM
  Area under the curve (AUC): 0.6397
CHAGOK1_LUNG
  Area under the curve (AUC): 0.489
CHL1_SKIN
  Area under the curve (AUC): 0.6244
CHLA06ATRT_SOFT_TISSUE
  Area under the curve (AUC): 0.5593
CHLA10_BONE
  Area under the curve (AUC): 0.7982
CHLA15_AUTONOMIC_GANGLIA
  Area under the curve (AUC): 0.6039
CHLA57_BONE
  Area under the curve (AUC): 0.7007
CHLA200_CENTRAL_NERVOUS_SYSTEM
  Area under the curve (AUC): 0.6544
CJM_SKIN
  Area under the curve (AUC): 0.5835
CL11_LARGE_INTESTINE
  Area under the curve (AUC): 0.4982
CMLT1_HAEMATOPOIETIC_AND_LYMPHOID_TISSUE
  Area under the curve (AUC): 0.6333
COGAR359_SOFT_TISSUE
  Area under the curve (AUC): 0.7818
COGE352_BONE
  Area under the curve (AUC): 0.9516
COGN278_AUTONOMIC_GANGLIA
  Area under the curve (AUC): 0.4846
COLO320_LARGE_INTESTINE
  Area under the curve (AUC): 0.6681
COLO668_LUNG
  Area under the curve (AUC): 0.6484
  PRISM AUC: 0.815
COLO678_LARGE_INTESTINE
  Area under the curve (AUC): 0.7153
COLO679_SKIN
  Area under the curve (AUC): 0.858
COLO680N_OESOPHAGUS
  Area under the curve (AUC): 0.6858
COLO741_SKIN
  Area under the curve (AUC): 1
COLO783_SKIN
  Area under the curve (AUC): 0.8893
COLO792_SKIN
  Area under the curve (AUC): 0.7007
COLO800_SKIN
  Area under the curve (AUC): 0.7125
CORL23_LUNG
  Area under the curve (AUC): 0.5921
  PRISM AUC: 0.1909
CORL88_LUNG
  Area under the curve (AUC): 0.5624
CORL105_LUNG
  Area under the curve (AUC): 0.7085
CORL279_LUNG
  Area under the curve (AUC): 0.7248
COV318_OVARY
  Area under the curve (AUC): 0.8633
COV362_OVARY
  Area under the curve (AUC): 0.7849
COV434_OVARY
  Area under the curve (AUC): 0.99
COV644_OVARY
  Area under the curve (AUC): 0.7771
CW2_LARGE_INTESTINE
  Area under the curve (AUC): 0.99
CW9019_SOFT_TISSUE
  Area under the curve (AUC): 0.6651
DANG_PANCREAS
  Area under the curve (AUC): 0.3955
  PRISM AUC: 0.2087
DAOY_CENTRAL_NERVOUS_SYSTEM
  Area under the curve (AUC): 0.7146
DBTRG05MG_CENTRAL_NERVOUS_SYSTEM
  Area under the curve (AUC): 0.9233
DEL_HAEMATOPOIETIC_AND_LYMPHOID_TISSUE
  Area under the curve (AUC): 0.7782
DETROIT562_UPPER_AERODIGESTIVE_TRACT
  Area under the curve (AUC): 0.4955
DKMG_CENTRAL_NERVOUS_SYSTEM
  Area under the curve (AUC): 0.9357
DL_SOFT_TISSUE
  Area under the curve (AUC): 0.5482
DMS53_LUNG
  Area under the curve (AUC): 0.9195
DMS79_LUNG
  Area under the curve (AUC): 0.9708
DMS273_LUNG
  Area under the curve (AUC): 0.8299
[1]
  Area under the curve (AUC): 0.662
  PRISM AUC: 0.4904
DOHH2_HAEMATOPOIETIC_AND_LYMPHOID_TISSUE
  Area under the curve (AUC): 0.794
DOTC24510_CERVIX
  Area under the curve (AUC): 0.5479
DU145_PROSTATE
  Area under the curve (AUC): 0.7717
DU4475_BREAST
  Area under the curve (AUC): 0.7278
DV90_LUNG
  Area under the curve (AUC): 0.3742
  PRISM AUC: 0.1773
EB1_HAEMATOPOIETIC_AND_LYMPHOID_TISSUE
  Area under the curve (AUC): 0.7516
EBC1_LUNG
  Area under the curve (AUC): 0.4773
ECC2_BILIARY_TRACT
  Area under the curve (AUC): 0.751
ECC10_STOMACH
  Area under the curve (AUC): 0.6145
ECGI10_OESOPHAGUS
  Area under the curve (AUC): 0.5375
EFE184_ENDOMETRIUM
  Area under the curve (AUC): 0.7163
EFM19_BREAST
  Area under the curve (AUC): 0.9395
EFM192A_BREAST
  Area under the curve (AUC): 1
EFO21_OVARY
  Area under the curve (AUC): 0.6416
EFO27_OVARY
  Area under the curve (AUC): 0.6995
EGI1_BILIARY_TRACT
  Area under the curve (AUC): 0.5258
EKVX_LUNG
  Area under the curve (AUC): 0.7007
EM2_HAEMATOPOIETIC_AND_LYMPHOID_TISSUE
  Area under the curve (AUC): 0.5861
EMTOKA_ENDOMETRIUM
  Area under the curve (AUC): 0.6769
EN_ENDOMETRIUM
  Area under the curve (AUC): 0.882
ES2_OVARY
  Area under the curve (AUC): 0.9145
ESS1_ENDOMETRIUM
  Area under the curve (AUC): 0.5647
EW8_BONE
  Area under the curve (AUC): 0.6981
EWS502_BONE
  Area under the curve (AUC): 0.6483
FADU_UPPER_AERODIGESTIVE_TRACT
  Area under the curve (AUC): 0.6687
FLO1_OESOPHAGUS
  Area under the curve (AUC): 1
FTC133_THYROID
  Area under the curve (AUC): 0.5671
FTC238_THYROID
  Area under the curve (AUC): 0.9611
G292CLONEA141B1
  Area under the curve (AUC): 0.925
G292CLONEA141B1_BONE
  Area under the curve (AUC): 0.8311
G361_SKIN
  Area under the curve (AUC): 1
G401_SOFT_TISSUE
  Area under the curve (AUC): 0.9104
G402_SOFT_TISSUE
  Area under the curve (AUC): 0.9029
G415_BILIARY_TRACT
  Area under the curve (AUC): 0.596
GAMG_CENTRAL_NERVOUS_SYSTEM
  Area under the curve (AUC): 0.6539
GB1_CENTRAL_NERVOUS_SYSTEM
  Area under the curve (AUC): 1
GB2_BILIARY_TRACT
  Area under the curve (AUC): 0.5045
GP2D_LARGE_INTESTINE
  PRISM AUC: 0.4036
GSU_STOMACH
  PRISM AUC: 0.1903
HCC44_LUNG
  PRISM AUC: 0.3549
HCC56_LARGE_INTESTINE
  PRISM AUC: 0.1735
HCT15_LARGE_INTESTINE
  PRISM AUC: 0.6069
HCT116_LARGE_INTESTINE
  PRISM AUC: 0.4206
HEC1A_ENDOMETRIUM
  PRISM AUC: 0.5452
HEC1B_ENDOMETRIUM
  PRISM AUC: 0.557
HEYA8_OVARY
  PRISM AUC: 0.3651
HMC18_BREAST
  PRISM AUC: 0.1236
HPAC_PANCREAS
  PRISM AUC: 0.2345
HPAFII_PANCREAS
  PRISM AUC: 0.1832
HT29_LARGE_INTESTINE
  AUC (PRISM viability): 0.9401
HT55_LARGE_INTESTINE
  AUC (PRISM viability): 0.5483
HT144_SKIN
  AUC (PRISM viability): 0.8437
HT_HAEMATOPOIETIC_AND_LYMPHOID_TISSUE
  AUC (PRISM viability): 0.5864
HUCCT1_BILIARY_TRACT
  PRISM AUC: 0.2016

— paper PMC11111408, “Concurrent inhibition of oncogenic and wild-type RAS-GTP for cancer therapy” (Nature, 2024)
